According to the NIST ThermoML archive (doi:10.1007/s10765-010-0719-7):

Assays:
[1] = 101 kPa, Liquid; for mass density: Pycnometric method
[2] = refractive index (Na D-line) (dimensionless); conditions: 303.15 K; 101.33 kPa; Liquid; Standard Abbe refractometry
[3] = xn = mol fraction of the nth substance listed; conditions: 101 kPa, Liquid; for mass density: Pycnometric method
[4] = refractive index (Na D-line) (dimensionless); xn = mol fraction of the nth substance listed; conditions: 303.15 K, 101 kPa, Liquid, Standard Abbe refractometry

CC(C)CCO [3-methylbutan-1-ol]
[1]
Conditions	mass density [kg/m3]	speed of sound [m/s]	viscosity [mPa·s]
303.15 K	803.1	1197.4	3.262
313.15 K	796.4	–	2.441
323.15 K	789.8	–	1.94

Conditions	refractive index
[2]	1.4035

CCCCOCCO [2-butoxyethan-1-ol]
[1]
Conditions	mass density [kg/m3]	speed of sound [m/s]	viscosity [mPa·s]
303.15 K	892	1288.4	2.486
313.15 K	884.2	–	1.979
323.15 K	877.5	–	1.653

Conditions	refractive index
[2]	1.415

CCOCCO [2-ethoxyethan-1-ol]
[1]
Conditions	mass density [kg/m3]	speed of sound [m/s]	viscosity [mPa·s]
303.15 K	919.5	1301.5	1.623
313.15 K	912	–	1.355
323.15 K	903.8	–	1.143

Conditions	refractive index
[2]	1.4065

CC(C)CCO [3-methylbutan-1-ol] + CCCCOCCO
[3], x1 = 1
Conditions	mass density [kg/m3]	speed of sound [m/s]	viscosity [mPa·s]
303.15 K	803.1	1197.4	3.262
313.15 K	796.4	–	2.441
323.15 K	789.8	–	1.94

Conditions	refractive index
[4], x1 = 1	1.4035

CCOCCO [2-ethoxyethan-1-ol] + CC(C)CCO
[3]
Conditions	mass density, 303.15 K [kg/m3]	mass density, 313.15 K [kg/m3]	mass density, 323.15 K [kg/m3]	speed of sound, 303.15 K [m/s]	viscosity, 303.15 K [mPa·s]	viscosity, 313.15 K [mPa·s]	viscosity, 323.15 K [mPa·s]
x2 = 0	919.5	912	903.8	1301.5	1.623	1.355	1.143
x2 = 0.102	906.1	898.6	890.5	1292.4	1.688	1.385	1.169
x2 = 0.2036	892.9	885.6	877.7	1282.4	1.761	1.424	1.196
x2 = 0.3047	880.1	872.9	865.1	1272.7	1.812	1.469	1.222
x2 = 0.4053	867.7	860.5	853	1262.9	1.892	1.53	1.263
x2 = 0.5055	855.8	848.7	841.3	1251.2	1.994	1.604	1.31
x2 = 0.6053	844.3	837.3	830	1240.6	2.124	1.68	1.377
x2 = 0.7046	833.3	826.4	819.2	1229.3	2.301	1.812	1.46
x2 = 0.8035	822.8	815.9	808.8	1219.2	2.496	1.945	1.566
x2 = 0.902	812.6	805.8	799	1208.7	2.807	2.143	1.728

[4]
Conditions	refractive index
x2 = 0	1.4065
x2 = 0.102	1.4062
x2 = 0.2036	1.4059
x2 = 0.3047	1.4055
x2 = 0.4053	1.4052
x2 = 0.5055	1.4049
x2 = 0.6053	1.4046
x2 = 0.7046	1.4043
x2 = 0.8035	1.404
x2 = 0.902	1.4037

COCCO [2-methoxyethan-1-ol] + CC(C)CCO
[3], x2 = 0
Conditions	mass density [kg/m3]	speed of sound [m/s]	viscosity [mPa·s]
303.15 K	956.8	1324.3	1.55
313.15 K	946.3	–	1.288
323.15 K	937.8	–	1.082

Conditions	refractive index
[4], x2 = 0	1.3983

CC(C)CCO [3-methylbutan-1-ol] + COCCO
[3]
Conditions	mass density, 303.15 K [kg/m3]	mass density, 313.15 K [kg/m3]	mass density, 323.15 K [kg/m3]	speed of sound, 303.15 K [m/s]	viscosity, 303.15 K [mPa·s]	viscosity, 313.15 K [mPa·s]	viscosity, 323.15 K [mPa·s]
x1 = 0.0875	938.3	928.2	919.8	1312.1	1.578	1.312	1.111
x1 = 0.1775	920.5	910.8	902.8	1299.2	1.611	1.341	1.153
x1 = 0.2701	903.2	893.9	885.9	1287.4	1.652	1.376	1.169
x1 = 0.3653	886.7	877.6	870	1274.8	1.749	1.432	1.192
x1 = 0.4633	870.8	862.2	854.7	1261.2	1.82	1.482	1.224
x1 = 0.5643	855.8	847.6	840.1	1248.8	1.934	1.554	1.28
x1 = 0.6683	841.5	833.6	826.3	1235.7	2.119	1.667	1.355
x1 = 0.7754	827.8	820.5	813.2	1223.3	2.354	1.834	1.481
x1 = 0.886	815.1	808.1	801.1	1210.5	2.715	2.06	1.671
x1 = 1	803.1	796.4	789.8	1197.4	3.262	2.441	1.94

[4]
Conditions	refractive index
x1 = 0.0875	1.3988
x1 = 0.1775	1.3993
x1 = 0.2701	1.3999
x1 = 0.3653	1.4004
x1 = 0.4633	1.4009
x1 = 0.5643	1.4014
x1 = 0.6683	1.402
x1 = 0.7754	1.4025
x1 = 0.886	1.403
x1 = 1	1.4035

CCCCOCCO [2-butoxyethan-1-ol] + CC(C)CCO
[3]
Conditions	mass density, 303.15 K [kg/m3]	mass density, 313.15 K [kg/m3]	mass density, 323.15 K [kg/m3]	speed of sound, 303.15 K [m/s]	viscosity, 303.15 K [mPa·s]	viscosity, 313.15 K [mPa·s]	viscosity, 323.15 K [mPa·s]
x2 = 0	892	884.2	877.5	1288.4	2.486	1.979	1.653
x2 = 0.1297	882.2	874.5	867.7	1279.8	2.483	1.969	1.623
x2 = 0.251	872.5	865.4	858.2	1270.3	2.496	1.967	1.629
x2 = 0.3649	863.1	856.1	848.8	1261.8	2.514	1.987	1.636
x2 = 0.472	853.9	847.2	839.8	1251.8	2.557	1.997	1.65
x2 = 0.5728	845	837.9	831	1242.3	2.594	2.028	1.673
x2 = 0.6679	838.6	829.5	822.3	1233.5	2.653	2.067	1.702
x2 = 0.7578	827.7	821	813.9	1224.2	2.748	2.121	1.737
x2 = 0.8428	819.3	812.5	805.7	1215.3	2.877	2.2	1.798
x2 = 0.9235	811.1	804.6	797.6	1206.4	3.058	2.303	1.851

[4]
Conditions	refractive index
x2 = 0	1.415
x2 = 0.1297	1.4138
x2 = 0.251	1.4127
x2 = 0.3649	1.4115
x2 = 0.472	1.4104
x2 = 0.5728	1.4093
x2 = 0.6679	1.408
x2 = 0.7578	1.4069
x2 = 0.8428	1.4058
x2 = 0.9235	1.4047

COCCO [2-methoxyethan-1-ol]
[1]
Conditions	mass density [kg/m3]	speed of sound [m/s]	viscosity [mPa·s]
303.15 K	956.8	1324.3	1.55
313.15 K	946.3	–	1.288
323.15 K	937.8	–	1.082

Conditions	refractive index
[2]	1.3983

CC(C)CCO [3-methylbutan-1-ol] + CCOCCO
[3], x1 = 1
Conditions	mass density [kg/m3]	speed of sound [m/s]	viscosity [mPa·s]
303.15 K	803.1	1197.4	3.262
313.15 K	796.4	–	2.441
323.15 K	789.8	–	1.94

Conditions	refractive index
[4], x1 = 1	1.4035
